According to US10780101B2, “Amide derivatives of squalamine for the treatment of infections” (VIRBAC, priority 2016, dated 2020):
Converted amounts (≈) assume the structure as drawn. Read-outs that look alike come from different tables or passages of the source.

Experiments:
E. coli Animal (1956) = experiment: MIC determination, E. coli animal (1956); type: cell-based; details: Escherichia coli; Gram-negative; Mueller-Hinton medium, 24 h at 37° C.
Method: (§1) A negative control (2 mL of sterile culture medium)
(§2) A positive control (1940 μL of culture medium+40 μL of DMSO+20 μL of the bacterial suspension) from a thawed biological strain (the biological strains are stored at −80° C. in glycerol).
(§3) The tubes were incubated at 37° C. for 24 hours at 100 rpm.
(§4) The microorganisms were handled under a type L2 laboratory fume cupboard and, before any handling, a UV cycle was programmed and only sterile material was used. […] The chemical compounds to be tested were prepared in a DMSO/methanol mixture (50/50) at a concentration of 5 mg/mL.
(§5) After 24 hours of incubation, a measurement of the optical density was taken using a spectrophotometer at 600 nm, collecting 100 μL of the bacterial suspension diluted in 900 μL of the sterile culture medium. This test required the use of a 96-well plate and the required volume of the microbial suspension to be seeded was calculated for an OD corresponding to a value equal to 0.01 in each well. In this plate, the first line corresponded to the negative control (195 μL of sterile culture medium in each well), the second line corresponded to the positive control (seeded culture medium supplemented with 2% of DMSO), and the third line was loaded twice with bacterial suspension; 8 μL of test product were placed in each well. Thereafter, a 0.5 cascade dilution was performed from this line.
(§6) The first column served as inhibition control. A sterile filter was then placed on the microplate, allowing the passage of gases but not of contaminants. The microplate was incubated at 37° C. under a humid atmosphere for 24 hours.
(§7) NB: The medium used is Mueller-Hinton (MH) medium for bacteria. All the tests were performed in duplicate.
(§8) After incubation, the filter was replaced with a transparent film, and an OD reading was then taken in an iEMS plate spectrophotometer at 620 nm. Calculation of the minimum inhibitory concentration (MIC) was performed.

[1] = test system: E. faecalis Human ATCC 29212; experiment: MIC determination, E. faecalis human ATCC 29212; type: cell-based; details: Enterococcus faecalis, ATCC29212; Gram-positive; Mueller-Hinton medium, 24 h at 37° C.
Method: as §1, §2, §3, §4, §5, §6, §7, §8

[2] = test system: S. aureus Human ATCC 25923; experiment: MIC determination, S. aureus human ATCC 25923; type: cell-based; details: Staphylococcus aureus, ATCC25923; Gram-positive; Mueller-Hinton medium, 24 h at 37° C.
Method: as §1, §2, §3, §4, §5, §6, §7, §8

[3] = test system: S. intermedius Animal (1051997); experiment: MIC determination, S. intermedius animal (1051997); type: cell-based; details: Staphylococcus intermedius; Gram-positive; Mueller-Hinton medium, 24 h at 37° C.
Method: as §1, §2, §3, §4, §5, §6, §7, §8

CHO-K1 cells = experiment: WST1 cytotoxicity test on CHO-K1 cells; type: cell-based, Chinese hamster; details: Cricetulus griseus, read-out: IC50 (μg/mL) CHO
Method: Test WST1 was used to measure the cytotoxic activity of the products. This is a colorimetric test which makes it possible to measure the viability and the degree of cell proliferation. It is based on cleavage of the colorless tetrazolium salts WST-1 (4-[3-(4-iodophenyl)-2-(4-nitrophenyl)-2H-5-tetrazolio]-1,3-benzene disulfonate) with mitochondrial dehydrogenases to the yellow-colored formazan derivative, which may be quantified by spectrophotometry at 420-480 nm.
The WST1 test was performed on Chinese hamster ovary cells. The CHO-K1 cells (ATCC, USA) are kept in culture in McCoy's 5A medium supplemented with 10% fetal calf serum, 2 mM of L-glutamine and a mixture of penicillin-streptomycin (100 U/ml: 10 μg/ml). The culture is incubated at 37° C. under an atmosphere enriched in CO2 (5%), and subcultured every two days.
The cells are transferred into 96-well plates (25000 cells/mL) in whole McCoy's 5A medium, and maintained for 24 hours at 37° C. under a humid atmosphere enriched in CO2 (5%). Increasing concentrations of test products are added to the wells in double tests and 8 growth controls containing the cells in the medium alone are included in each series of tests. After 24 hours at 37° C. (5% CO2), the culture medium is removed, the cells are rinsed in phosphate buffer (PBS) and 50 μL of PBS containing 10% of reagent WST1 are added to each well. After 20 minutes of incubation at 37° C., the results are read by spectrophotometry at 450 nm.
The results are expressed in dose-response relationships, modeled by nonlinear regression analysis using the TableCurve software. The 50% inhibitory concentration (IC50) represents the concentration of product that is capable of reducing the cell viability by 50%.

P. aeruginosa (1051575) = experiment: Potentiation of doxycycline activity (combination MIC); type: cell-based, Pseudomonas aeruginosa; details: in presence of doxycycline 2 μg/mL; 24 hours at 37° C.
S. aureus Animal (340) = experiment: MIC determination, S. aureus animal (340); type: cell-based; details: Staphylococcus aureus; Gram-positive; Mueller-Hinton medium, 24 h at 37° C.
Method: as §1, §2, §3, §4, §5, §6, §7, §8

[4] = test system: P. aeruginosa Human ATCC 27853; experiment: MIC determination, P. aeruginosa human ATCC 27853; type: cell-based; details: Pseudomonas aeruginosa, ATCC27853; Gram-negative; Mueller-Hinton medium, 24 h at 37° C.
Method: as §1, §2, §3, §4, §5, §6, §7, §8

[5] = test system: P. aeruginosa Animal (1051575); experiment: MIC determination, P. aeruginosa animal (1051575); type: cell-based; details: Pseudomonas aeruginosa; Gram-negative; Mueller-Hinton medium, 24 h at 37° C.
Method: as §1, §2, §3, §4, §5, §6, §7, §8

E. coli Human ATCC 28922 = experiment: MIC determination, E. coli human ATCC 28922; type: cell-based; details: Escherichia coli, ATCC28922; Gram-negative; Mueller-Hinton medium, 24 h at 37° C.
Method: as §1, §2, §3, §4, §5, §6, §7, §8

Row | Compound | MIC (E. coli Animal (1956)) [µg/mL] | MIC [1] [µg/mL] | MIC [2] [µg/mL] | MIC [3] [µg/mL] | IC50 (CHO-K1 cells; CHO-K1, 24 h) [µg/mL] | MIC - P. aeruginosa (1051575): content of compound of formula (I) to restore the doxycycline activity (at 2 μg/mL) (P. aeruginosa (1051575)) [µg/mL] | MIC (S. aureus Animal (340)) [µg/mL] | MIC [4] [µg/mL] | MIC [5] [µg/mL] | MIC (E. coli Human ATCC 28922) [µg/mL] | IC50 (CHO-K1 cells; Table III, WST1 test, CHO-K1 cells, 24 hours) [µg/mL]
1 | CC(C)NC(=O)CC[C@@H](C)[C@H]1CCC2C3CCC4C[C@@H](NCCCNCCCNCCCN)CC[C@]4(C)C3CC[C@@]21C (stereo partly drawn) [(17), 3β-norspermino-N-isopropyllithocholamide] | 32 (≈ 54.4 µM) | 8 (≈ 13.6 µM) | 8 (≈ 13.6 µM) | 4 (≈ 6.8 µM) | 17 (≈ 28.9 µM) | 2 | 8 (≈ 13.6 µM) | 64 (≈ 109 µM) | 32 (≈ 54.4 µM) | 16 (≈ 27.2 µM) | 
2 | CC(C)NC(=O)CC[C@@H](C)[C@H]1CCC2C3CCC4C[C@@H](NCCNCCNCCNCCNCCN)CC[C@]4(C)C3CC[C@@]21C (some centres unmarked) [(24)] | 64 (≈ 101 µM) | 16 (≈ 25.3 µM) | 8 (≈ 12.7 µM) | 4 (≈ 6.33 µM) | 35 (≈ 55.4 µM) | 8 | 8 (≈ 12.7 µM) | 128 (≈ 203 µM) | 128 (≈ 203 µM) | 32 (≈ 50.6 µM) | 
3 | CC(C)NC(=O)CC[C@@H](C)[C@H]1CCC2C3CCC4C[C@@H](NCCCNCCCCNCCCN)CC[C@]4(C)C3C[C@H](O)[C@@]21C (stereo partly drawn) [(30), 3β-spermino-N-isopropyldeoxycholamide] | 30 (≈ 48.5 µM) | 15 (≈ 24.3 µM) | 8 (≈ 12.9 µM) | 1 (≈ 1.62 µM) | 30 (≈ 48.5 µM) | 1 | 8 (≈ 12.9 µM) | 4 (≈ 6.47 µM) | 4 (≈ 6.47 µM) | 15 (≈ 24.3 µM) | 
4 | CCN(CC)C(=O)CC[C@@H](C)[C@H]1CCC2C3C(CC[C@@]21C)[C@@]1(C)CC[C@H](NCCCNCCNCCCN)CC1C[C@H]3O (stereo partly drawn) [(53), 3β-(bis(3-aminopropyl)ethylenediamine)-N,N-diethylchenodeoxycholamide] | 15 (≈ 24.8 µM) | 2 (≈ 3.31 µM) | 4 (≈ 6.62 µM) | 2 (≈ 3.31 µM) | 30 (≈ 49.7 µM) | 2 | 4 (≈ 6.62 µM) | 30 (≈ 49.7 µM) | 15 (≈ 24.8 µM) | 60 (≈ 99.3 µM) | 
5 | CC(C)NC(=O)CC[C@@H](C)[C@H]1CCC2C3CCC4C[C@@H](NCCNCCNCCNCCNCCN)CC[C@]4(C)C3C[C@H](O)[C@@]21C (stereo partly drawn) [(20), 3β-(pentaethylenehexamine)-N-isopropyldeoxycholamide] | 16 (≈ 24.7 µM) | 8 (≈ 12.3 µM) | 8 (≈ 12.3 µM) | 4 (≈ 6.17 µM) | 18 (≈ 27.8 µM) | 4 | 8 (≈ 12.3 µM) | 32 (≈ 49.4 µM) | 32 (≈ 49.4 µM) | 8 (≈ 12.3 µM) | 
6 | CNC(=O)CC[C@@H](C)[C@H]1CCC2C3C(CC[C@@]21C)[C@@]1(C)CC[C@H](NCCCN2CCN(CCCN)CC2)CC1C[C@H]3O (stereo partly drawn) [(12), 3β-(1,4-bis(3-aminopropyl)piperazine)-N-methylchenodeoxycholamide] | 15 (≈ 25.5 µM) | 15 (≈ 25.5 µM) | 8 (≈ 13.6 µM) | 2 (≈ 3.4 µM) | 50 (≈ 85 µM) | 8 | 4 (≈ 6.8 µM) | 60 (≈ 102 µM) | 30 (≈ 51 µM) | 30 (≈ 51 µM) | 
7 | CCN(CC)C(=O)CC[C@@H](C)[C@H]1CCC2C3C(CC[C@@]21C)[C@@]1(C)CC[C@H](NCCCNCCCN)CC1C[C@H]3O (stereo partly drawn) [(13), 3β-norspermidino-N,N-diethylchenodeoxycholamide] | 8 (≈ 14.3 µM) | 2 (≈ 3.57 µM) | 2 (≈ 3.57 µM) | 2 (≈ 3.57 µM) | 22 (≈ 39.2 µM) | 2 | 4 (≈ 7.13 µM) | 16 (≈ 28.5 µM) | 16 (≈ 28.5 µM) | 8 (≈ 14.3 µM) | 
8 | CC(C)NC(=O)CC[C@@H](C)[C@H]1CCC2C3C(CC[C@@]21C)[C@@]1(C)CC[C@H](NCCCN2CCN(CCCN)CC2)CC1C[C@@H]3O (stereo partly drawn) [(16), 3β-(1,4-bis(3-aminopropyl)piperazine)-N-isopropylursodeoxycholamide] | 120 (≈ 195 µM) | 120 (≈ 195 µM) | 60 (≈ 97.4 µM) | 15 (≈ 24.4 µM) |  |  | 60 (≈ 97.4 µM) | > 120 | > 120 | 60 (≈ 97.4 µM) | 
9 | CC(C)NC(=O)CC[C@@H](C)[C@H]1CCC2C3C(CC[C@@]21C)[C@@]1(C)CC[C@H](NCCNCCNCCNCCNCCN)CC1C[C@@H]3O (stereo partly drawn) [(23), 3β-(pentaethylenehexamine)-N-isopropylursodeoxycholamide] | 128 (≈ 198 µM) | 64 (≈ 98.8 µM) | 32 (≈ 49.4 µM) | 16 (≈ 24.7 µM) |  |  | 32 (≈ 49.4 µM) | 128 (≈ 198 µM) | 128 (≈ 198 µM) | 128 (≈ 198 µM) | 115 (≈ 177 µM)
10 | CCN(CC)C(=O)CC[C@@H](C)[C@H]1CCC2C3C(CC[C@@]21C)[C@@]1(C)CC[C@H](NCCCNCCCNCCCN)CC1C[C@H]3O (stereo partly drawn) [(39), 3β-norspermino-N,N-diethylchenodeoxycholamide] | 4 (≈ 6.47 µM) |  | 2 (≈ 3.24 µM) | 1 (≈ 1.62 µM) |  | 2 | 1 (≈ 1.62 µM) | 15 (≈ 24.3 µM) | 8 (≈ 12.9 µM) | 120 (≈ 194 µM) | 
